According to the supplement of paper PMC11208160:
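Also: IS621 bridge recombinase in Escherichia coli cells against a fixed T5 target plasmid.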

Test: recombinant UMI read abundance after kanamycin selection (control-corrected) (log10(CPM+1)); higher = more efficient recombination; extreme values may be limits of the assay; sequences stand for … in AGTGCAGAGAAAATCGGCCAGTTTTCTCTGCCTGCAGTCCGCATGCCGTGGGACCCCTTGGGTTCTAACCTGTTGCCTAGATTTATGCAGCGGACTGCCTTTCTCCCAAAGTGATAAACCGG…AGGTTGGTTTCACT; site = the 11-nt donor
Description: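 Pooled E. coli donor-specificity screen for the IS621 bridge recombinase. Each library member carries a reprogrammed 11-nt donor and a full-length LE bridge RNA expressed in cis from the natural promoter, with a paired donor-binding loop (8-nt LDG + 4-nt RDG) and a target-binding loop fixed to T5. It is co-electroporated with a T5 target plasmid; recombinase is induced with 0.07 mM IPTG and recombinants are selected on kanamycin. UMIs are counted as CPM, averaged over two biological replicates and corrected by the unselected control. Molecule = full bridge RNA written as DNA, built from the T5 scaffold: LDG = donor specificity nt 1-8, RDG = reverse complement of nt 8-11.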
In the case of “AACGATGCATGGACCGGTTTTCCCGGTAATCCGTATTTGAC (site AACGATGCTGT)”, the “recombinant UMI read abundance (log10)” value was 2.22. With “AACGCCGCATGGACCGGTTTTCCCGGTAATCCGTATTTGTC (site AACGCCGCTGA)” the “recombinant UMI read abundance (log10)” value was 2.24. For “AACGGTCCATGGACCGGTTTTCCCGGTAATCCGTATTTGAT (site AACAGTCCTAT)”, the “recombinant UMI read abundance (log10)” value was 0.00739. In the case of “AACGGTCCATGGACCGGTTTTCCCGGTAATCCGTATTTGAT (site AACCGTCCTAT)”, the “recombinant UMI read abundance (log10)” value was 0. For “AACGGTCCATGGACCGGTTTTCCCGGTAATCCGTATTTGAT (site AACGGTCCTAT)”, the “recombinant UMI read abundance (log10)” value was 0. In the case of “AACGGTCCATGGACCGGTTTTCCCGGTAATCCGTATTTGAT (site AACTGTCCTAT)”, the “recombinant UMI read abundance (log10)” value was 0.145. For “AACGTAACATGGACCGGTTTTCCCGGTAATCCGTATTTGCT (site AAAGTAACTAG)”, the “recombinant UMI read abundance (log10)” value was 0.893. In the case of “AACGTAACATGGACCGGTTTTCCCGGTAATCCGTATTTGCT (site AACGTAACTAG)”, the “recombinant UMI read abundance (log10)” value was 2.51. For “AACGTAACATGGACCGGTTTTCCCGGTAATCCGTATTTGCT (site AAGGTAACTAG)”, the “recombinant UMI read abundance (log10)” value was 0.524. With “AACGTAACATGGACCGGTTTTCCCGGTAATCCGTATTTGCT (site AATGTAACTAG)” the “recombinant UMI read abundance (log10)” value was 1.49. For “AACGTATCATGGACCGGTTTTCCCGGTAATCCGTATTTGCA (site AACGTATCTTG)”, the “recombinant UMI read abundance (log10)” value was 2.73. With “AACGTATCATGGACCGGTTTTCCCGGTAATCCGTATTTGCA (site ACAGTATCTTG)” the “recombinant UMI read abundance (log10)” value was 1.07. For “AACGTCTCATGGACCGGTTTTCCCGGTAATCCGTATTTGTC (site AACGTCTCTGA)”, the “recombinant UMI read abundance (log10)” value was 3.05. With “AACGTGTCATGGACCGGTTTTCCCGGTAATCCGTATTTGTT (site AACGTGTCTAA)” the “recombinant UMI read abundance (log10)” value was 2.59. In the case of “AACTAGACATGGACCGGTTTTCCCGGTAATCCGTATTTGAG (site AACTAGACTCT)”, the “recombinant UMI read abundance (log10)” value was 1.48. For “AACTATACATGGACCGGTTTTCCCGGTAATCCGTATTTGGT (site AACTATACTAC)”, the “recombinant UMI read abundance (log10)” value was 1.26. In the case of “AACTCATCATGGACCGGTTTTCCCGGTAATCCGTATTTGAA (site AACTCATCTTT)”, the “recombinant UMI read abundance (log10)” value was 1.19. In the case of “AACTCGCCATGGACCGGTTTTCCCGGTAATCCGTATTTGCT (site AACTCGCCTAG)”, the “recombinant UMI read abundance (log10)” value was 1.56. For “AACTCGCCATGGACCGGTTTTCCCGGTAATCCGTATTTGTT (site AACTCGCCTAA)”, the “recombinant UMI read abundance (log10)” value was 0.0268. With “AACTGGTCATGGACCGGTTTTCCCGGTAATCCGTATTTGAC (site AACTGGTCTGT)” the “recombinant UMI read abundance (log10)” value was 1.18. For “AAGAATTCATGGACCGGTTTTCCCGGTAATCCGTATTTGTA (site AAGAATTCTTA)”, the “recombinant UMI read abundance (log10)” value was 2.33. With “AAGACCGCATGGACCGGTTTTCCCGGTAATCCGTATTTGCC (site AAGACCGCTGG)” the “recombinant UMI read abundance (log10)” value was 2.73. In the case of “AAGATGCCATGGACCGGTTTTCCCGGTAATCCGTATTTGTG (site AAGATGCCTCA)”, the “recombinant UMI read abundance (log10)” value was 0.653. For “AAGATTCCATGGACCGGTTTTCCCGGTAATCCGTATTTGTA (site AAGATTCCTTA)”, the “recombinant UMI read abundance (log10)” value was 1.3. For “AAGCACGCATGGACCGGTTTTCCCGGTAATCCGTATTTGAG (site AAGCACGCTCA)”, the “recombinant UMI read abundance (log10)” value was 0.629. With “AAGCACGCATGGACCGGTTTTCCCGGTAATCCGTATTTGAG (site AAGCACGCTCC)” the “recombinant UMI read abundance (log10)” value was 0.225. For “AAGCACGCATGGACCGGTTTTCCCGGTAATCCGTATTTGAG (site AAGCACGCTCG)”, the “recombinant UMI read abundance (log10)” value was 0.644. In the case of “AAGCACGCATGGACCGGTTTTCCCGGTAATCCGTATTTGAG (site AAGCACGCTCT)”, the “recombinant UMI read abundance (log10)” value was 1.49. In the case of “AAGCACGCATGGACCGGTTTTCCCGGTAATCCGTATTTGCG (site AAGCACGCTCA)”, the “recombinant UMI read abundance (log10)” value was 0.289. For “AAGCACGCATGGACCGGTTTTCCCGGTAATCCGTATTTGCG (site AAGCACGCTCC)”, the “recombinant UMI read abundance (log10)” value was 0.223. With “AAGCACGCATGGACCGGTTTTCCCGGTAATCCGTATTTGCG (site AAGCACGCTCG)” the “recombinant UMI read abundance (log10)” value was 1.44. For “AAGCACGCATGGACCGGTTTTCCCGGTAATCCGTATTTGCG (site AAGCACGCTCT)”, the “recombinant UMI read abundance (log10)” value was 0.766. With “AAGCACGCATGGACCGGTTTTCCCGGTAATCCGTATTTGGC (site AAGCACGCTAC)” the “recombinant UMI read abundance (log10)” value was 0.701. For “AAGCACGCATGGACCGGTTTTCCCGGTAATCCGTATTTGGC (site AAGCACGCTCC)”, the “recombinant UMI read abundance (log10)” value was 0.0935. With “AAGCACGCATGGACCGGTTTTCCCGGTAATCCGTATTTGGC (site AAGCACGCTGC)” the “recombinant UMI read abundance (log10)” value was 2.71. With “AAGCACGCATGGACCGGTTTTCCCGGTAATCCGTATTTGGC (site AAGCACGCTTC)” the “recombinant UMI read abundance (log10)” value was 0.476. With “AAGCACGCATGGACCGGTTTTCCCGGTAATCCGTATTTGGT (site AAGCACGCTAC)” the “recombinant UMI read abundance (log10)” value was 1.48. With “AAGCACGCATGGACCGGTTTTCCCGGTAATCCGTATTTGGT (site AAGCACGCTCC)” the “recombinant UMI read abundance (log10)” value was 0.315. In the case of “AAGCACGCATGGACCGGTTTTCCCGGTAATCCGTATTTGGT (site AAGCACGCTGC)”, the “recombinant UMI read abundance (log10)” value was 1.24. In the case of “AAGCACGCATGGACCGGTTTTCCCGGTAATCCGTATTTGGT (site AAGCACGCTTC)”, the “recombinant UMI read abundance (log10)” value was 0.427. With “AAGCATACATGGACCGGTTTTCCCGGTAATCCGTATTTGAC (site AAGCATACTGT)” the “recombinant UMI read abundance (log10)” value was 2.88. For “AAGCCCGCATGGACCGGTTTTCCCGGTAATCCGTATTTGGG (site AAGCACGCTCC)”, the “recombinant UMI read abundance (log10)” value was 0.00486. In the case of “AAGCCCGCATGGACCGGTTTTCCCGGTAATCCGTATTTGGG (site AAGCCCGCTCC)”, the “recombinant UMI read abundance (log10)” value was 0.0203. For “AAGCCCGCATGGACCGGTTTTCCCGGTAATCCGTATTTGGG (site AAGCGCGCTCC)”, the “recombinant UMI read abundance (log10)” value was 0.0392. For “AAGCCCGCATGGACCGGTTTTCCCGGTAATCCGTATTTGGG (site AAGCTCGCTCC)”, the “recombinant UMI read abundance (log10)” value was 0.0406. In the case of “AAGCCGGCATGGACCGGTTTTCCCGGTAATCCGTATTTGGC (site AAGCCGGCTGC)”, the “recombinant UMI read abundance (log10)” value was 0. For “AAGCGCTCATGGACCGGTTTTCCCGGTAATCCGTATTTGCG (site AAGCGCTCTCG)”, the “recombinant UMI read abundance (log10)” value was 2.26. For “AAGGAAACATGGACCGGTTTTCCCGGTAATCCGTATTTGCA (site AAGGAAACTTG)”, the “recombinant UMI read abundance (log10)” value was 2.06. In the case of “AAGGAATCATGGACCGGTTTTCCCGGTAATCCGTATTTGCG (site AAGGAATCTCG)”, the “recombinant UMI read abundance (log10)” value was 3.14. For “AAGGAATCATGGACCGGTTTTCCCGGTAATCCGTATTTGCG (site CAGGAATCTCG)”, the “recombinant UMI read abundance (log10)” value was 2.38. With “AAGGAATCATGGACCGGTTTTCCCGGTAATCCGTATTTGCG (site GAGGAATCTCG)” the “recombinant UMI read abundance (log10)” value was 2.74. For “AAGGAATCATGGACCGGTTTTCCCGGTAATCCGTATTTGCG (site TAGGAATCTCG)”, the “recombinant UMI read abundance (log10)” value was 3.08. With “AAGGACTCATGGACCGGTTTTCCCGGTAATCCGTATTTGTT (site AAGGACTCTAA)” the “recombinant UMI read abundance (log10)” value was 2.9. In the case of “AAGGAGCCATGGACCGGTTTTCCCGGTAATCCGTATTTGGG (site AAGGAGCCTCC)”, the “recombinant UMI read abundance (log10)” value was 0.00843. For “AAGGATGCATGGACCGGTTTTCCCGGTAATCCGTATTTGTG (site AAGGATGCTCA)”, the “recombinant UMI read abundance (log10)” value was 2.3. In the case of “AAGGCGACATGGACCGGTTTTCCCGGTAATCCGTATTTGGA (site AAGGCGACTTC)”, the “recombinant UMI read abundance (log10)” value was 0.0223. In the case of “AAGGGCCCATGGACCGGTTTTCCCGGTAATCCGTATTTGGC (site AAGGGCCCTGC)”, the “recombinant UMI read abundance (log10)” value was 0.674. For “AAGGGGTCATGGACCGGTTTTCCCGGTAATCCGTATTTGAT (site AAGGGGTCTAT)”, the “recombinant UMI read abundance (log10)” value was 2.94. In the case of “AAGGGTTCATGGACCGGTTTTCCCGGTAATCCGTATTTGTC (site AAGGGTTCTGA)”, the “recombinant UMI read abundance (log10)” value was 2.5. For “AAGGTTGCATGGACCGGTTTTCCCGGTAATCCGTATTTGCA (site AAGGTTGCTTG)”, the “recombinant UMI read abundance (log10)” value was 2.22. With “AAGTAACCATGGACCGGTTTTCCCGGTAATCCGTATTTGGA (site AAGTAACCTTC)” the “recombinant UMI read abundance (log10)” value was 0.105. With “AAGTACGCATGGACCGGTTTTCCCGGTAATCCGTATTTGGG (site AAGAACGCTCC)” the “recombinant UMI read abundance (log10)” value was 0.14. For “AAGTACGCATGGACCGGTTTTCCCGGTAATCCGTATTTGGG (site AAGCACGCTCC)”, the “recombinant UMI read abundance (log10)” value was 0.0289. In the case of “AAGTACGCATGGACCGGTTTTCCCGGTAATCCGTATTTGGG (site AAGGACGCTCC)”, the “recombinant UMI read abundance (log10)” value was 0.492. For “AAGTACGCATGGACCGGTTTTCCCGGTAATCCGTATTTGGG (site AAGTACGCTCC)”, the “recombinant UMI read abundance (log10)” value was 0.423. In the case of “AAGTCCACATGGACCGGTTTTCCCGGTAATCCGTATTTGCT (site AAGTCCACTAG)”, the “recombinant UMI read abundance (log10)” value was 1.56. For “AAGTTACCATGGACCGGTTTTCCCGGTAATCCGTATTTGAC (site AAGTTACCTGT)”, the “recombinant UMI read abundance (log10)” value was 0. For “AATAGCCCATGGACCGGTTTTCCCGGTAATCCGTATTTGAC (site AATAGCCCTGT)”, the “recombinant UMI read abundance (log10)” value was 1.07. For “AATAGTGCATGGACCGGTTTTCCCGGTAATCCGTATTTGAG (site AATAGTGCTCT)”, the “recombinant UMI read abundance (log10)” value was 1.4. For “AATATAGCATGGACCGGTTTTCCCGGTAATCCGTATTTGCC (site AATATAGCTGG)”, the “recombinant UMI read abundance (log10)” value was 1.53. In the case of “AATATGACATGGACCGGTTTTCCCGGTAATCCGTATTTGTG (site AATATGACTCA)”, the “recombinant UMI read abundance (log10)” value was 0.774. For “AATCACCCATGGACCGGTTTTCCCGGTAATCCGTATTTGCT (site AATCACCCTAG)”, the “recombinant UMI read abundance (log10)” value was 0.532.
